What all share (assay): Kinobeads competition binding, HeLa Placenta lysate mix
What all share (design): endogenous in cells
Conditions in all cases: 10 μM free compound

The target in one assay is CaMK2g (Homo sapiens, UniProt Q13555). The method in brief:
(§1)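 Read-out is iTRAQ reporter ion quantification by nano-LC-MS/MS, comparing a lysate aliquot pretreated with 10 μM free compound to a DMSO solvent control. Kinases not bound by free compound were pulled down on beads carrying the immobilized compound, separated by SDS-PAGE and digested with trypsin.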

The target of a further assay is CaMKK2 (Homo sapiens, UniProt Q96RR4). The method in brief:
as §1

For a further assay, the target named is BCR (Homo sapiens, UniProt P11274). The method in brief: as §1
For a further assay, the target named is GSK3B (Homo sapiens, UniProt P49841). The method, boiled down:
as §1

Another assay deals with AAK1 (Homo sapiens, UniProt Q2M2I8). The method in brief:
as §1

In another assay the target is MAP2K1 (Homo sapiens, UniProt Q02750). The method in brief:
as §1

Another assay concerns the target BIKE (Homo sapiens, UniProt Q9NSY1). The method, boiled down: as §1
In a further assay the target is LRRK2 (Homo sapiens, UniProt Q5S007). The method in brief: as §1
The target of another assay is RSK3 (Homo sapiens, UniProt Q15349). The method in brief:
as §1

A further assay addresses T1, IKKe (Homo sapiens, UniProt Q14164).
T1 sequence (Q14164 1-716): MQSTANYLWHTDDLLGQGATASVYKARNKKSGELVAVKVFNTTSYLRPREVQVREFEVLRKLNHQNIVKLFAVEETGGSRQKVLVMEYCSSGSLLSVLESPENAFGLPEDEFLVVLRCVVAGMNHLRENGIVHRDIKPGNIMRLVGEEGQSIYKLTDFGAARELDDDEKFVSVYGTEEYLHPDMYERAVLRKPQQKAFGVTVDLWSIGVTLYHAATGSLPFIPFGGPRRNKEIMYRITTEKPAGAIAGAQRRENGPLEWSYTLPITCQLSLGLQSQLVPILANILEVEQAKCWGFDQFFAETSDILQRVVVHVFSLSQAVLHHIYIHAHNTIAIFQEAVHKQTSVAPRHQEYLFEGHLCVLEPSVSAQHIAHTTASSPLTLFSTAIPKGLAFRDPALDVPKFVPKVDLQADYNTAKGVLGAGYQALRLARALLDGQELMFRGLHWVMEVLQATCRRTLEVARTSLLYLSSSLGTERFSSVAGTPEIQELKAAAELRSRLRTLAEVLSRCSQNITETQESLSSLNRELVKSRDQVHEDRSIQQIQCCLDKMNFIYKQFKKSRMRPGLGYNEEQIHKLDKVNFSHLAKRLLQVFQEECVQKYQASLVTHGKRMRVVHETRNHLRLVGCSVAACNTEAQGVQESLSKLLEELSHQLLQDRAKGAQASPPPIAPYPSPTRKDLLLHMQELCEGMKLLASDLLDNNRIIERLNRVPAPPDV
The method in brief:
as §1

In the next assay the target is DNAPK (Homo sapiens, UniProt P78527). The method in brief: as §1
Chain of DNAPK (P78527 whole entry): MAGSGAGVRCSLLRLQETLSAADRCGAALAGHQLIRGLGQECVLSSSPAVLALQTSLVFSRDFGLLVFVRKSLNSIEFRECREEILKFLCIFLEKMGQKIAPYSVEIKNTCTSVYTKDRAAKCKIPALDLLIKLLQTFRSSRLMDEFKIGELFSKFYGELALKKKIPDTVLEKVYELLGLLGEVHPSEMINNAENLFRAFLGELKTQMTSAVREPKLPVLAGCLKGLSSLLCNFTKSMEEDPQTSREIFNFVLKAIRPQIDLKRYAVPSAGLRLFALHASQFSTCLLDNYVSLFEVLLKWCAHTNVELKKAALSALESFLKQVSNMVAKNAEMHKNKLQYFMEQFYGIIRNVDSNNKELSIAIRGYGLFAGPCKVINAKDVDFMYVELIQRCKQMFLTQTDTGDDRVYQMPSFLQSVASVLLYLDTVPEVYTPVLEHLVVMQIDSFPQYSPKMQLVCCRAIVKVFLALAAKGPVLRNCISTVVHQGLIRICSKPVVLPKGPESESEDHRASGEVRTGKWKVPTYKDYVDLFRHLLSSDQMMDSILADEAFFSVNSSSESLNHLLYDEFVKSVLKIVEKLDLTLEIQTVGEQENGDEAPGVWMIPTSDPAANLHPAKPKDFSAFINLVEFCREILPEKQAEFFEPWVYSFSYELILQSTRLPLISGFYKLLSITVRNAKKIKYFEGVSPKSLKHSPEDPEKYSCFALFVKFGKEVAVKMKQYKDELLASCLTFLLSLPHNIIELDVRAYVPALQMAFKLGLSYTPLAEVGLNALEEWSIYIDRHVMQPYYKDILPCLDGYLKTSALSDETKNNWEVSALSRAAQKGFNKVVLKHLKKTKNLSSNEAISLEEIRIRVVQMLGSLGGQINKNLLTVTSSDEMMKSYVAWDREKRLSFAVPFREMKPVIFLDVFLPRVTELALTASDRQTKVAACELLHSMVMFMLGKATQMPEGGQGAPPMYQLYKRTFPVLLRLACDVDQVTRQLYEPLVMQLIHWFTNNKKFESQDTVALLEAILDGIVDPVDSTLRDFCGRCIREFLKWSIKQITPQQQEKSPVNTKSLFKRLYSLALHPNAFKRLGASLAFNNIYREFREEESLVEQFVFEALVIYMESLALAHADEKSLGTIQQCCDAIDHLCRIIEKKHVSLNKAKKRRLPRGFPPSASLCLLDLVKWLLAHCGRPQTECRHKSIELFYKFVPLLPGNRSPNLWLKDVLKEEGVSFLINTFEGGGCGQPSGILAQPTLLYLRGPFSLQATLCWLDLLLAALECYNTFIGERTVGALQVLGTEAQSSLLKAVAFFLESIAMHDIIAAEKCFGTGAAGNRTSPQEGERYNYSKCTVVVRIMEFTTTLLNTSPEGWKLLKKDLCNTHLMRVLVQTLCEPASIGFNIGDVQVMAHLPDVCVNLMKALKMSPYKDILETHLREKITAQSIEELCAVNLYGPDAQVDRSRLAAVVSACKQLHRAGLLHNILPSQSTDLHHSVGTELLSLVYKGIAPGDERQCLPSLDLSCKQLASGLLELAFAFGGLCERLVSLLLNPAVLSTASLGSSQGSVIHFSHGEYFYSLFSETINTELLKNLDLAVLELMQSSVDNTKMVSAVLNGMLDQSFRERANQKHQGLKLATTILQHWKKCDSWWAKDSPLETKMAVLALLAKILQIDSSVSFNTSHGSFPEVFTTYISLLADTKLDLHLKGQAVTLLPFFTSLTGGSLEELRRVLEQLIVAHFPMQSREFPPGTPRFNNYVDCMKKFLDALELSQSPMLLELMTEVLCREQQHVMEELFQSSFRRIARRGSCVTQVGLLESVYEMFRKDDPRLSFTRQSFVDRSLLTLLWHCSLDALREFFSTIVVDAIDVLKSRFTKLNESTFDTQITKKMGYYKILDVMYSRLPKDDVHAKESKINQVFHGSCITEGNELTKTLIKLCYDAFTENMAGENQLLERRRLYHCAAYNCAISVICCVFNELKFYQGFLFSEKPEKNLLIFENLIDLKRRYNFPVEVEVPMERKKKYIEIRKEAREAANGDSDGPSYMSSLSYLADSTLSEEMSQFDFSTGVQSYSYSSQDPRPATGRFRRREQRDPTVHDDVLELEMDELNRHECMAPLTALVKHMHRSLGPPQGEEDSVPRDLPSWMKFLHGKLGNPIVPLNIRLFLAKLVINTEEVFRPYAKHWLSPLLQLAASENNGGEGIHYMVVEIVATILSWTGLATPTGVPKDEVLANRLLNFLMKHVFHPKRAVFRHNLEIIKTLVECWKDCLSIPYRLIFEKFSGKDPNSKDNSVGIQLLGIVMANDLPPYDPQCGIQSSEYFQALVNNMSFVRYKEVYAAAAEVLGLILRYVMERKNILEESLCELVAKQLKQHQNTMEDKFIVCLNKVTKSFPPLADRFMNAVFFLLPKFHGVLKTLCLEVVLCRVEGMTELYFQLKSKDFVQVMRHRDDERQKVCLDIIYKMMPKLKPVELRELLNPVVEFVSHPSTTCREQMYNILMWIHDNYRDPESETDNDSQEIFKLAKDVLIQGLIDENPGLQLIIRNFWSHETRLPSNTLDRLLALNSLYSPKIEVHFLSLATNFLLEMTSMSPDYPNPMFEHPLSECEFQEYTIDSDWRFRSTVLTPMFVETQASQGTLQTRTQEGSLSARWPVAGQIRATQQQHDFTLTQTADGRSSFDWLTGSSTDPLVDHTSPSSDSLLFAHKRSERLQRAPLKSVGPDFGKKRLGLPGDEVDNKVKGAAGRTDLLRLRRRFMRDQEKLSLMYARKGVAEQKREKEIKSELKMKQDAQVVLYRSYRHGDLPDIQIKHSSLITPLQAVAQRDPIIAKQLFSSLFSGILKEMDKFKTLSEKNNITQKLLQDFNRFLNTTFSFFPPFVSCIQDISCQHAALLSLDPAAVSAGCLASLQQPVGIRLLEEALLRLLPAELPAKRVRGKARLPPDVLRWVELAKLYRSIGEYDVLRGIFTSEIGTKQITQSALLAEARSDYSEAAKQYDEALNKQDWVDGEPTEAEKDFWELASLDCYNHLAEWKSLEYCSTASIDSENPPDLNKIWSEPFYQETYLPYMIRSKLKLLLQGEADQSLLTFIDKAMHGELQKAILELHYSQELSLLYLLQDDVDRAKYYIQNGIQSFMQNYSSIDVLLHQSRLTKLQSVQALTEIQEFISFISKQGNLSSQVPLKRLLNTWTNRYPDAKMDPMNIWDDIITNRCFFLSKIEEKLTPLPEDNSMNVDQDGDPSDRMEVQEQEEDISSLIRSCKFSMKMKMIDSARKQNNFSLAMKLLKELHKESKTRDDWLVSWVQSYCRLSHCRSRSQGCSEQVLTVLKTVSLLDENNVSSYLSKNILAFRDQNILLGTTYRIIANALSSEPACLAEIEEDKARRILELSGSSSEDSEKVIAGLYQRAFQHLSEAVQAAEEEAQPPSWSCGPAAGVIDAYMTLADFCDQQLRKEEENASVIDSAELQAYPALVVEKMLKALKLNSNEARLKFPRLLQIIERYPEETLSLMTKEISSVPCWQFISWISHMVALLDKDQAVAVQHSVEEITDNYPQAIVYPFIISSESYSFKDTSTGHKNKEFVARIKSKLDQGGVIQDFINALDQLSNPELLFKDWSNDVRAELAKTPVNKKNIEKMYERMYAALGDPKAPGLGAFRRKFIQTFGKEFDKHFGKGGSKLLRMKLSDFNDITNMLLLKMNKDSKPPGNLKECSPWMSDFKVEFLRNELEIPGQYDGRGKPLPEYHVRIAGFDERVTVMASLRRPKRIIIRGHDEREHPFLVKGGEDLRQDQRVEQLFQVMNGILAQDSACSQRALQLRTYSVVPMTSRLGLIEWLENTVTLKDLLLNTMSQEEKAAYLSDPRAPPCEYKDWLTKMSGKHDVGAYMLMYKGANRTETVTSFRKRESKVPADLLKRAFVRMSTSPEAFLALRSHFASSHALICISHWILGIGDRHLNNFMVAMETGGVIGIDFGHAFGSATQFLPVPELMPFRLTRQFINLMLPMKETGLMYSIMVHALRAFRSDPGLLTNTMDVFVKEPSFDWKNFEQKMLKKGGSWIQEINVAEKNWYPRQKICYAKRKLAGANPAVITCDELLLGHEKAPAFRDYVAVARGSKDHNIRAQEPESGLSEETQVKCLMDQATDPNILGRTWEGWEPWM
In a further assay the target is T2, TBK1 (Homo sapiens, UniProt Q9UHD2).
T2 sequence (Q9UHD2 1-729): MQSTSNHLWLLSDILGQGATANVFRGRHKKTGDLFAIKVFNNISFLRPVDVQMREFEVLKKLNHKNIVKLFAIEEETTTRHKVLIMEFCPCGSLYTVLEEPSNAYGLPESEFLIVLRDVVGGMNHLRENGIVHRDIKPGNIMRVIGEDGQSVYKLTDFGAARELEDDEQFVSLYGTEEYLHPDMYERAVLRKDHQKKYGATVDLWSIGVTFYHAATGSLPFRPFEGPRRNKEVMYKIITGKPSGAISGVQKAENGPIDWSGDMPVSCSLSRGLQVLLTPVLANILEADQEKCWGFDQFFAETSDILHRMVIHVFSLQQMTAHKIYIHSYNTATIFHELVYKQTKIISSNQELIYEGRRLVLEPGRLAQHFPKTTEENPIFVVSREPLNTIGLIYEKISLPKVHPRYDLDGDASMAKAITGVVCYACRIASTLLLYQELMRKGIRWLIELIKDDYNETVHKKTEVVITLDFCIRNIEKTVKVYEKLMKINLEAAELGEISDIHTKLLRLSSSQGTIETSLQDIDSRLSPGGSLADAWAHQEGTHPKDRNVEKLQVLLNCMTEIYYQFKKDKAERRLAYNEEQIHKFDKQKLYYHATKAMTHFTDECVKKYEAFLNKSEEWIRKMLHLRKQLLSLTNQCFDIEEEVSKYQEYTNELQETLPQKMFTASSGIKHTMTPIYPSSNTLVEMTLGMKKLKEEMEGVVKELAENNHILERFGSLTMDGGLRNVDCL
The method, boiled down:
as §1

The structures appear in SMILES notation.

As a reminder, the inhibition is the drop in the measured response relative to a control, in per cent. A higher inhibition goes with a response far below the control.

Chain of GSK3B (P49841 whole entry): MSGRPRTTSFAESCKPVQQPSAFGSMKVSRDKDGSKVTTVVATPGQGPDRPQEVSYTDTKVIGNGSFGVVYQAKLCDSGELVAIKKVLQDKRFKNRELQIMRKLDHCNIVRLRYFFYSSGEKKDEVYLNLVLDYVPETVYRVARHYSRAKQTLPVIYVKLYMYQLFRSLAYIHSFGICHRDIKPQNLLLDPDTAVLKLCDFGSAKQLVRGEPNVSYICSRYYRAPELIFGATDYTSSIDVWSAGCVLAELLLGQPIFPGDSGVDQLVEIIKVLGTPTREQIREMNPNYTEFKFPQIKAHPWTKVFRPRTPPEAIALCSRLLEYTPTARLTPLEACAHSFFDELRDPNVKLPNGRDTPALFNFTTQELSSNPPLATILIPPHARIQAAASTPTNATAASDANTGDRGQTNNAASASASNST
Chain of MAP2K1 (Q02750 whole entry): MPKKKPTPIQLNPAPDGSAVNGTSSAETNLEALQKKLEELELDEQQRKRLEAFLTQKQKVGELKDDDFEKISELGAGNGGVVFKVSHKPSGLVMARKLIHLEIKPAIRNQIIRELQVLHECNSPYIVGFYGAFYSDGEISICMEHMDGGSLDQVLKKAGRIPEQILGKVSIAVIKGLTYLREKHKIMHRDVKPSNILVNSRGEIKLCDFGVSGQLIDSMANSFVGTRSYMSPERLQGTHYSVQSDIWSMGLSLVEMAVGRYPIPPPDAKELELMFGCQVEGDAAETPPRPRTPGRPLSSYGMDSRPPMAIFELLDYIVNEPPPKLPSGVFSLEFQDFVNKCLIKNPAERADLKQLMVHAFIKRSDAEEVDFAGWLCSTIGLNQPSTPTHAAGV

Turning to `CS(=O)(=O)Nc1ccccc1Nc1nc(Nc2cccc(OCCN)c2)ncc1Cl` [CZC31326, N-(2-(2-(3-(2-aminoethoxy)phenylamino)-5-chloropyrimidin-4-ylamino)phenyl)methanesulfonamide], the inhibition at 10 µM amounted to 84.8% on CaMK2g; 94.3% on CaMKK2; 90.2% on BCR; 93.3% on GSK3B; 94.5% on AAK1; 83.7% at MAP2K1. The inhibition at 10 µM on BIKE was found to be 92.9%; on LRRK2, 85.2%; at RSK3, 94.8%; at IKKe, 89.7%; at DNAPK, 69.2%; at TBK1, 93.8%.

(Values after patent US20120270237A9, “METHODS FOR THE IDENTIFICATION OF KINASE INTERACTING MOLECULES AND FOR THE PURIFICATION OF KINASE PROTEINS” (Cellzone AG, priority 2009, published 2012).)
